Experimental findings from ChEMBL document CHEMBL1201862, “PubChem BioAssay data set” (2004) are described below.

Activity calls are given as the source filed them. Where only a bound is given, the exact number is not on record here.

The target in assay [1] is T1, RNA-binding protein pos-1 (Caenorhabditis elegans, UniProt G5EF15).
T1 sequence (G5EF15 whole entry): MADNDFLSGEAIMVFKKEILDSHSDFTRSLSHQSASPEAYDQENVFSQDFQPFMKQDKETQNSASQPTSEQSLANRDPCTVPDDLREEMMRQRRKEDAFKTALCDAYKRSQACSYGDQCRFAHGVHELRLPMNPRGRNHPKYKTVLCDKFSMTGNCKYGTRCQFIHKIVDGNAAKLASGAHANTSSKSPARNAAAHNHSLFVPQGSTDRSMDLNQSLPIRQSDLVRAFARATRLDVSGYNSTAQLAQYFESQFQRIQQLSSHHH
The experiment in a line: disruptors of C. elegans POS-1 RNA interaction – biochemical, fluorescence polarization, dose response (AID 1964).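 Further: purified POS-1 fused to maltose binding protein made in E. coli; potency of compounds blocking POS-1 binding to fluorescent RNA.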

The target of assay [2] is T2, Zinc finger protein mex-5 (Caenorhabditis elegans, UniProt Q9XUB2).
T2 sequence (Q9XUB2 whole entry): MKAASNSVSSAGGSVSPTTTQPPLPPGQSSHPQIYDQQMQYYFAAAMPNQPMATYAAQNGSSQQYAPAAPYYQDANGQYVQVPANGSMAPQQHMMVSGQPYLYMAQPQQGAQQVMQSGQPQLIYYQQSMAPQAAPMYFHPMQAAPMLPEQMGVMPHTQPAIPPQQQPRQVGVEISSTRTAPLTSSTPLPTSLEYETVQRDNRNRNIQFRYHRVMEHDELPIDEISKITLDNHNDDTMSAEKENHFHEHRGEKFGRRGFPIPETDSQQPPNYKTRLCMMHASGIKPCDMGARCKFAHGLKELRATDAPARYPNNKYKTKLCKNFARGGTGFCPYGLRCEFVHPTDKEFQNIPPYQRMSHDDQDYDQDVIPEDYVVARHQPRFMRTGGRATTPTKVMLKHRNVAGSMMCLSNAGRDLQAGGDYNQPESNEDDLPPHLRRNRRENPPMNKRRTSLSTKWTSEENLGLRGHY
Briefly: potency of MEX-5 RNA-binding blockers – biochemical, C. elegans, fluorescence polarization, dose response (AID 1960).

Assay [3] concerns the target Alkaline phosphatase, placental type (Homo sapiens, UniProt P05187). The experiment in a line: human placental alkaline phosphatase inhibition – biochemical, luminescence, confirmation (AID 1512). The assay is classed as functional.
Assay [4] is described as follows: Intein inhibitors as potential Tuberculosis drugs, a cytotoxicity screen. [Related pubchem assays (depositor defined):AID2221, AID2223, AID434968, AID435010, AID449749, AID449750, AID489010]. Format: functional.
The target in assay [5] is T3, Replicative DNA helicase DnaB (Mycobacterium tuberculosis, UniProt P9WMR3).
T3 sequence (P9WMR3 whole entry): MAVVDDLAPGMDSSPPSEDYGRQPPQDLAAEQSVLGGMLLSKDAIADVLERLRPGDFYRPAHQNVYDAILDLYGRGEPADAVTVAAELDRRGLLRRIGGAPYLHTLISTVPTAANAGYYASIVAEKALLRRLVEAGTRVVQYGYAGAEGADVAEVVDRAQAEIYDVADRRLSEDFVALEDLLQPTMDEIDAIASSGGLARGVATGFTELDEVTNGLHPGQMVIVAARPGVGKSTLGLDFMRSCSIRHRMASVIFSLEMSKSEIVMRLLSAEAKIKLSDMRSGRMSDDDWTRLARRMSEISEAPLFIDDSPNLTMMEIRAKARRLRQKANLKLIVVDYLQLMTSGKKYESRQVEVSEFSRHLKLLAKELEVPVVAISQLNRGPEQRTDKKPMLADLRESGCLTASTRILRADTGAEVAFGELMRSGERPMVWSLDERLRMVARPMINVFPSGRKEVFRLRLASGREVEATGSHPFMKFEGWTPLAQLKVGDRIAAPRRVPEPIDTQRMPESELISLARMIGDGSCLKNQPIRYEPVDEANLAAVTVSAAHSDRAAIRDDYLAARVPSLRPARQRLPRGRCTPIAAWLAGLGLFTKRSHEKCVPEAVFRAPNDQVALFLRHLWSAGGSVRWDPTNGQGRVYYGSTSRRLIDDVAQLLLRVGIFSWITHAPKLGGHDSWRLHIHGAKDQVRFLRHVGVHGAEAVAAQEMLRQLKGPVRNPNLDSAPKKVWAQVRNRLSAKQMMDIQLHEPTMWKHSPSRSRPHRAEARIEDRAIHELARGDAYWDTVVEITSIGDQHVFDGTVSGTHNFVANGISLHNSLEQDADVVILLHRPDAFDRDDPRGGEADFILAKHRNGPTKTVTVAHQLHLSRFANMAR
Briefly: DnaB intein splicing inhibitors, dose response, biochemical, cell-free fluorescence (AID 449749). Format: functional.

The target of another assay is T4, Protein RecA (Mycobacterium tuberculosis, UniProt P9WHJ3).
T4 sequence (P9WHJ3 whole entry): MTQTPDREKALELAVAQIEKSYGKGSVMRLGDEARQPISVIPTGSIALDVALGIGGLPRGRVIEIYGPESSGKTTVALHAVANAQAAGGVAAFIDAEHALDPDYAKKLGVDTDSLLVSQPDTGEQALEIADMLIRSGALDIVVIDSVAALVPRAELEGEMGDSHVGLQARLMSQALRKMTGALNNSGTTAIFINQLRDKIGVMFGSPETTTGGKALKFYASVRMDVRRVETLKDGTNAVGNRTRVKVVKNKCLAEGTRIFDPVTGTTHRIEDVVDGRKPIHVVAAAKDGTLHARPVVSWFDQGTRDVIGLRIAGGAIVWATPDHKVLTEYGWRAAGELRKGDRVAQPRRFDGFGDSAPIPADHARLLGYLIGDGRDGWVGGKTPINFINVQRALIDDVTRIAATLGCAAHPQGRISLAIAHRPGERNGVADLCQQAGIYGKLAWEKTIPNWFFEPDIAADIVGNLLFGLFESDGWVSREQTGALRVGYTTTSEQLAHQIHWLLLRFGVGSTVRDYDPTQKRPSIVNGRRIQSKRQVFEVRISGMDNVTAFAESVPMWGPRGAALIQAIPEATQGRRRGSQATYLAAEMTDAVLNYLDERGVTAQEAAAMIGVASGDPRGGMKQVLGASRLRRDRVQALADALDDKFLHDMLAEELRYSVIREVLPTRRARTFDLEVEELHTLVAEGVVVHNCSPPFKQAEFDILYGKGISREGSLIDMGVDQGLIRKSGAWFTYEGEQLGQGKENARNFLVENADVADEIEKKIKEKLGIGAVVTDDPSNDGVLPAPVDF
The experiment in a line: Fluorescence Cell-Free Homogeneous Dose Retest to Identify Inhibitors of RecA-Intein Splicing Activity. [Related pubchem assays (depositor defined):AID2097, AID2223, AID489010, AID492950]. The assay is classed as functional.

The target in assay [6] is T5, Cannabinoid receptor 2 (Homo sapiens, UniProt P34972). Briefly: SAR analysis of antagonists of the Cannabinoid Receptor 2 using an Image-Based Assay - Set 2. [Related pubchem assays (depositor defined):AID1961, AID1965]. The assay is classed as functional.
T5 sequence (P34972 whole entry): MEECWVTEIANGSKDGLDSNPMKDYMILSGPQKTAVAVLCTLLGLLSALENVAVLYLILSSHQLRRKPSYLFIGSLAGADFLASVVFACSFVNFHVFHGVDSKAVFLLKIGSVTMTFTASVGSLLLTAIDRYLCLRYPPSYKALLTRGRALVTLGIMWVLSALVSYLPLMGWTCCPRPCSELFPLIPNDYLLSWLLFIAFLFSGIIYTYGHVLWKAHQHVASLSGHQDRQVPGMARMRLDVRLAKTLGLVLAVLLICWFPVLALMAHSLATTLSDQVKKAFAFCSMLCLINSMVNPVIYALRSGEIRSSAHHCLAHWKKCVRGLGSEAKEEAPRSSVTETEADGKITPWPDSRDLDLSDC
Assay [7] concerns the target G-protein coupled receptor 55 (Homo sapiens, UniProt Q9Y2T6). Briefly: SAR analysis of selective Agonists of GPR55 using an Image-Based Assay - Set 2. [Related pubchem assays (depositor defined):AID1961, AID1965]. Format: functional.
Assay [8] deals with T5, Cannabinoid receptor 2. The experiment in a line: SAR analysis of agonists of the Cannabinoid Receptor 2 using an Image-Based Assay - Set 2. [Related pubchem assays (depositor defined):AID1961, AID1965]. The assay is classed as functional.
Assay [9] addresses T6, G-protein coupled receptor 35 (Homo sapiens, UniProt Q9HC97). The experiment in a line: SAR analysis of Agonists of the GPR35 Receptor using an Image-Based Assay - Set 3. [Related pubchem assays (depositor defined):AID1961, AID1965]. Format: functional.
In assay [10] the target is T7, Cannabinoid receptor 1 (Homo sapiens, UniProt P21554). Briefly: SAR analysis of antagonists of the Cannabinoid Receptor 1 using an Image-Based Assay - Set 3. [Related pubchem assays (depositor defined):AID1961, AID1965]. Format: functional.
T7 sequence (P21554 whole entry): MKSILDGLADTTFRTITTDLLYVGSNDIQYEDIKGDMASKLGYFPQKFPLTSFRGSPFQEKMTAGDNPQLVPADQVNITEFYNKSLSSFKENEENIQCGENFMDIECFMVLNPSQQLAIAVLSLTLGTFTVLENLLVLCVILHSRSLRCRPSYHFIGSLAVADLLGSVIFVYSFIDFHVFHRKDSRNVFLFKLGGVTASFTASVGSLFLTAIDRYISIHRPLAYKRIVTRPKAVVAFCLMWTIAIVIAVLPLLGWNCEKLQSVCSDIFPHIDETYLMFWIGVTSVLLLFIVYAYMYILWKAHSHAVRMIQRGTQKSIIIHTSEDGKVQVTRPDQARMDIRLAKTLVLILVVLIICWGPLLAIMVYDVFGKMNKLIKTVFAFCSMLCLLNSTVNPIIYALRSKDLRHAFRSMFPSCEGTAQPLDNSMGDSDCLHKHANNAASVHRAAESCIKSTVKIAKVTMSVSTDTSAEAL
Assay [11] deals with T7, Cannabinoid receptor 1. The experiment in a line: SAR analysis of agonists of the Cannabinoid Receptor 1 using an Image-Based Assay - Set 3. [Related pubchem assays (depositor defined):AID1961, AID1965]. The assay is classed as functional.
The target of assay [12] is T6, G-protein coupled receptor 35. The experiment in a line: SAR analysis of Antagonists of the GPR35 Receptor using an Image-Based Assay - Set 4. [Related pubchem assays (depositor defined):[…]]. The assay is classed as functional.
The target in assay [13] is T8, Intestinal-type alkaline phosphatase (Homo sapiens, UniProt P09923). The experiment in a line: Dose Response confirmation of uHTS hits from a small molecule inhibitors of human intestinal alkaline phosphatase via a luminescent assay. [Related pubchem assays (depositor defined):AID2544, AID2574]. Format: functional.
T8 sequence (P09923 whole entry): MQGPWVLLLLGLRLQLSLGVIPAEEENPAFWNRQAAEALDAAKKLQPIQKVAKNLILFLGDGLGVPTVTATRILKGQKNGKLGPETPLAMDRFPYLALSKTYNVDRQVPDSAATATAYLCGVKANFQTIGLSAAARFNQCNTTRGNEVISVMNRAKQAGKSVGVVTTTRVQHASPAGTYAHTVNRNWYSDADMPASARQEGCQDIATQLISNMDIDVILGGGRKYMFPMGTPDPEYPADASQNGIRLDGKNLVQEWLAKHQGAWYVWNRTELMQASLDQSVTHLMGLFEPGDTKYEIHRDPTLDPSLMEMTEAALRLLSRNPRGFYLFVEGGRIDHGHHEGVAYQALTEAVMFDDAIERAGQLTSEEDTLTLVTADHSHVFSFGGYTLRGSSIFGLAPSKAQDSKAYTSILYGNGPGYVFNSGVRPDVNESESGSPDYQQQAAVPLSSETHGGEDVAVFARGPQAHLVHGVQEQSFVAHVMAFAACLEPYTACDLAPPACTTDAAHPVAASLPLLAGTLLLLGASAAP
The target of assay [14] is T8, Intestinal-type alkaline phosphatase. Briefly: human intestinal alkaline phosphatase activators, dose response, biochemical, luminescence, uHTS hits (AID 463120). The assay is classed as functional.
For assay [15], the target named is T9, Voltage-gated N-type calcium channel alpha-1B subunit/Amyloid beta A4 precursor protein-binding family A member 1 (Homo sapiens, UniProt Q00975+Q02410). The assay is classed as protein assay.
T9 sequence (Q00975 whole entry): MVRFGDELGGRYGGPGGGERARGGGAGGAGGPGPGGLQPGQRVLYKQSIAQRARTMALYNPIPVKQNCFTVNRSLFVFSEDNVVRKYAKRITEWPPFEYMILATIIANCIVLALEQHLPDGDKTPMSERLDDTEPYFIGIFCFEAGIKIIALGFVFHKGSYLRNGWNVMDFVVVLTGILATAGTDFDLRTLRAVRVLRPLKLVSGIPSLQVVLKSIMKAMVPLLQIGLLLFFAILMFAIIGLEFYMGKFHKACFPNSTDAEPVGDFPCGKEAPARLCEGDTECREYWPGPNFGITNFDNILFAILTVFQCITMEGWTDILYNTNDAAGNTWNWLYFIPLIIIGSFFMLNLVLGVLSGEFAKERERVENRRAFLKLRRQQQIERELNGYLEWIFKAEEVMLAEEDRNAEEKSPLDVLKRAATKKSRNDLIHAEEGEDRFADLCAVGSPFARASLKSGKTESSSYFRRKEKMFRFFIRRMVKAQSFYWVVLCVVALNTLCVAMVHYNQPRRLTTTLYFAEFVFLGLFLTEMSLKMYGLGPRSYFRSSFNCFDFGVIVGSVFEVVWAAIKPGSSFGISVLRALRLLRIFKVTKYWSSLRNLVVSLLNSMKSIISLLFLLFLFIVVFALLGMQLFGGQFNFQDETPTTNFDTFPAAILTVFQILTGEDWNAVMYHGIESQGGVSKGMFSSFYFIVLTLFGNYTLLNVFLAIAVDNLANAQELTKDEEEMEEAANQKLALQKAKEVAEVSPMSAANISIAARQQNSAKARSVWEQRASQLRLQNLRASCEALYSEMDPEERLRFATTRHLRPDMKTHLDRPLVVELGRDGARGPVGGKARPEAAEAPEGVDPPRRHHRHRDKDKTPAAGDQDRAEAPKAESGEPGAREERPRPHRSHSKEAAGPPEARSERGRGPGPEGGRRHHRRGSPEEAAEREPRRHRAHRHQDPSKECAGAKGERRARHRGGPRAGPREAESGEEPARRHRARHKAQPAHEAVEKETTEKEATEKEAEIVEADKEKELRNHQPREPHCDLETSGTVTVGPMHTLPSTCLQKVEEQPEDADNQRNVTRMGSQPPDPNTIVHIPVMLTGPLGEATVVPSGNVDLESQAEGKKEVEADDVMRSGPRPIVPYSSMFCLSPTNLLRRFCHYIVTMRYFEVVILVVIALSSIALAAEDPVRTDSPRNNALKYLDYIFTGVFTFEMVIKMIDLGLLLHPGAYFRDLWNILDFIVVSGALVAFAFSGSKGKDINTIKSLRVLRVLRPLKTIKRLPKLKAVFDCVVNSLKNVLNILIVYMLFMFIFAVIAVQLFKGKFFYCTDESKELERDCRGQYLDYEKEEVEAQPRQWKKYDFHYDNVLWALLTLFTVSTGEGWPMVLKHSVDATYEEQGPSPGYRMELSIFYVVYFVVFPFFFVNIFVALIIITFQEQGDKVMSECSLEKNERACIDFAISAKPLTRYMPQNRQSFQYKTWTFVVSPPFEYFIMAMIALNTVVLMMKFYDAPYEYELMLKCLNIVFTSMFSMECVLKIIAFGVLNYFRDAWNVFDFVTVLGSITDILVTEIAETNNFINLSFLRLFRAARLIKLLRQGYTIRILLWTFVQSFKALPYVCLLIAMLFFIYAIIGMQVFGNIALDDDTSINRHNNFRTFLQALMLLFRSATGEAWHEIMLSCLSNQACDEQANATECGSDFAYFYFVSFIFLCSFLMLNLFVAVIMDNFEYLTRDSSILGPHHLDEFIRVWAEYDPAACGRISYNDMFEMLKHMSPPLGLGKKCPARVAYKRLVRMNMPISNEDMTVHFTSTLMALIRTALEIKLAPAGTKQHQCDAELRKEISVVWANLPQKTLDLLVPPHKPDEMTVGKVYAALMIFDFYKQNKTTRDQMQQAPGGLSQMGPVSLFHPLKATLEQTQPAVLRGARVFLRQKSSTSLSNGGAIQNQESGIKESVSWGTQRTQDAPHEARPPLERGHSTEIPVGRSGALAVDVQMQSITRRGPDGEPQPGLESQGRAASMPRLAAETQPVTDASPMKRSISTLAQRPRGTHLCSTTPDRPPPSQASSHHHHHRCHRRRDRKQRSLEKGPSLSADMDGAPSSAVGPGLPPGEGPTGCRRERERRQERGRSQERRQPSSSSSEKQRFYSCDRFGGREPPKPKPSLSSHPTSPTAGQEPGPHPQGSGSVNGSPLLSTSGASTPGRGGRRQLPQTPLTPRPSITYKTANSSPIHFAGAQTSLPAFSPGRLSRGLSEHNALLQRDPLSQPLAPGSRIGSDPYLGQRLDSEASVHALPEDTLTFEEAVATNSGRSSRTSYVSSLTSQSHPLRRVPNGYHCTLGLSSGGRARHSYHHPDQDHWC
T9 sequence (Q02410 whole entry): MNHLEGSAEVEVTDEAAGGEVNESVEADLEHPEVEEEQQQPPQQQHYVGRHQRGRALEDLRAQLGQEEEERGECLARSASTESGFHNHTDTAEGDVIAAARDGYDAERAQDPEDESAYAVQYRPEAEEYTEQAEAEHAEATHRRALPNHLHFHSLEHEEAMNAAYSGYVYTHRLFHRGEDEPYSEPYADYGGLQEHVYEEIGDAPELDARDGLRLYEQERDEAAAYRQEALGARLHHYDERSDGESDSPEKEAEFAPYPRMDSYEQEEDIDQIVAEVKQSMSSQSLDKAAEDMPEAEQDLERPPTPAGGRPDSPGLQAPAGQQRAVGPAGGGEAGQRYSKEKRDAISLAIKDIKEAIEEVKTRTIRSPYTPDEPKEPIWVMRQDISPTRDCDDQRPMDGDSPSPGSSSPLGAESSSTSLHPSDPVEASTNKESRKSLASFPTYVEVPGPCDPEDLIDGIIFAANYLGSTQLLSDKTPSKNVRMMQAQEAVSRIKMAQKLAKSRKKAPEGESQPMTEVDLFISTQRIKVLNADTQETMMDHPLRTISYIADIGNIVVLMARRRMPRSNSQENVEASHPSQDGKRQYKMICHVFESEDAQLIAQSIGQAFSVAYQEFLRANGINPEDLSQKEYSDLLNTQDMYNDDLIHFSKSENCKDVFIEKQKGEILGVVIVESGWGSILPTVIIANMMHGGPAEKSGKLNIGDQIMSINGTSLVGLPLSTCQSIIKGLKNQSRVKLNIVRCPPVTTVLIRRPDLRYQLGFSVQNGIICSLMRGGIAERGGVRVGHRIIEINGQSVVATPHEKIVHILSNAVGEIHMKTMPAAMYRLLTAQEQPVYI
Another assay addresses Large T antigen (Simian virus 40, UniProt P03070). The assay is classed as functional, Betapolyomavirus macacae.
For assay [16], the target named is T9, Voltage-gated N-type calcium channel alpha-1B subunit/Amyloid beta A4 precursor protein-binding family A member 1. The assay is classed as protein assay. The source holds these as a separate data set.
Another assay addresses Ion channel NompC (Danio rerio, UniProt Q7T1G6). Briefly: Dose response cell-based high-throughput screening assay for agonists of the transient receptor potential channel N1 (TRPN1). [Related pubchem assays (depositor defined):AID1424, AID1448]. Format: functional.
A further assay concerns the target T10, Mucolipin-3 (Homo sapiens, UniProt Q8TDD5).
T10 sequence (Q8TDD5 whole entry): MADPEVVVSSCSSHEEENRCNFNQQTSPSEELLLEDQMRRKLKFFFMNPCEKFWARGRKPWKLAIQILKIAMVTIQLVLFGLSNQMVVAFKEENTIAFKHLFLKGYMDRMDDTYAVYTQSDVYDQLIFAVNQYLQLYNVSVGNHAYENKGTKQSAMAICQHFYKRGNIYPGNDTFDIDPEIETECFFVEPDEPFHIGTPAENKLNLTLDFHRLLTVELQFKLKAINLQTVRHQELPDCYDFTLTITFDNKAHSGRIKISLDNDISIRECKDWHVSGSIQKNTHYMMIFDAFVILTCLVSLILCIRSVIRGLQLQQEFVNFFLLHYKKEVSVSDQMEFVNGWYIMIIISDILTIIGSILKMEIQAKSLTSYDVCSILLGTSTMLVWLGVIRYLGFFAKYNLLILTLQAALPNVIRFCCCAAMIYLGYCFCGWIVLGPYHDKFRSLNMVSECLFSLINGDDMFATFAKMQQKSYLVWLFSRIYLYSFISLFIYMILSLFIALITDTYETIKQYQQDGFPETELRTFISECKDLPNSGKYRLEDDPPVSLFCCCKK
Briefly: Fluorescence counterscreen assay for […] agonists: dose response cell-based high-throughput screening assay to identify agonists of the transient receptor potential channel ML3 (TRPML3). [Related pubchem assays: 1424, 1448 ]. The assay is classed as functional.

In assay [17] the target is T11, E3 ubiquitin-protein ligase XIAP (Homo sapiens, UniProt P98170). The experiment in a line: Counter Screen using XIAP-Bir3 for Chemical Antagonists of Bir1/2 domains of IAP-family anti-apoptotic proteins. [Related pubchem assays (depositor defined):AID1018, AID1449, AID1514, AID1638, AID1749, AID1750, AID488957, AID488963].
Assay [18] has as its target T11, E3 ubiquitin-protein ligase XIAP. Briefly: small molecules displacing peptide from XIAP – biochemical, IAP family, fluorescence polarization (AID 1018). The assay is classed as functional.
The test system of a further assay is T-cell. The experiment in a line: loss of vesicle association with mouse CD8+ T cells – mouse 2C CD8+ T cells, flow cytometry, dose response (AID 485284). The assay is classed as functional.
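Wherever CC50 is given: cells exposed to compound for 72 hours before luminescence readout.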

T6 sequence (Q9HC97 whole entry): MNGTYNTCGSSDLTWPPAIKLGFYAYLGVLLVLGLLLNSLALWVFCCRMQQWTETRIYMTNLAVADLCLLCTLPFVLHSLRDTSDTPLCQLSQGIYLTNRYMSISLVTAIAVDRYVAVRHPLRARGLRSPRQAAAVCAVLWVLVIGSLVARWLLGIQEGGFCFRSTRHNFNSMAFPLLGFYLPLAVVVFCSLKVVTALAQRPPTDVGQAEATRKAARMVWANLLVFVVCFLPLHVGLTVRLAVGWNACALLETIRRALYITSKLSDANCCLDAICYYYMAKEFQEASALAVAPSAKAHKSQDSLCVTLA

`COCCNC(=O)CCC(=O)NNc1nc2ccccc2c2nc(C)nn12`: the EC50 in assay [1] was 118 µM (active); in assay [2], 1.21 µM (active). Besides, the IC50 in [3] is > 100 µM (inactive).
Regarding `O=C(CCl)N1c2ccccc2OCC1c1ccccc1` (stereo not drawn), in assay [4], the CC50 is 6.48 µM (active). In addition, the AC50 in assay [5] was 2.58 µM (active). Moreover, on Protein RecA, the EC50 is 0.606 µM (active).
As for `Cc1cc2cc3c(cc2n2c(SCC(=O)Nc4nc(-c5ccccc5)cs4)nnc12)OCO3`, the IC50 at Cannabinoid receptor 2 [6] was > 32 µM (inactive); on Cannabinoid receptor 1 [10] it was 15.8 µM (inactive); in [12], > 32 µM (inactive). For the same molecule, the EC50 in [7] is 0.0648 µM (active); at Cannabinoid receptor 2 [8], > 32 µM (inactive); in [9] it was > 32 µM (inactive); on Cannabinoid receptor 1 [11], > 32 µM (inactive).
Regarding `CC(=O)c1ccc(NC(=O)C2CCCN2S(=O)(=O)c2cccs2)cc1` (stereo not drawn), in assay [13], the IC50 was > 100 µM (inactive). Besides, the EC50 in [14] was > 100 µM (inactive).
For `N#Cc1c(O)nsc1Nc1ccccc1C(F)(F)F`, the IC50 in assay [15] was 7.54 µM (active); on Large T antigen it was 56.5 µM (active); in assay [16] it was > 50 µM (inactive).
For `COc1cc(OC)c(C(=O)NC2CCCCCC2)cc1OC`, the EC50 on Ion channel NompC is > 29.9 µM (inactive); at Mucolipin-3, > 29.9 µM (not active).
For the molecule `CCN(Cc1ccccc1)C(=O)/C=C/c1ccccc1[N+](=O)[O-]`, the figures for the IC50 in assay [17] and in [18] were > 100 µM (inactive) and > 100 µM (not active), respectively.
Take `CCCCn1c(N)c(N(CCOC)C(=O)c2ccc(-c3ccc([N+](=O)[O-])cc3)o2)c(=O)[nH]c1=O`: the EC50 in the assay on T-cell is 23.9 µM (inactive).
